These are literature values, as cited in patent publication US4652627A, “Calcitonin analogs with C-terminal D-amino acid substituents” (priority 1985, dated 1987).

Positions of bridges follow the written chain, without caps; N, C: chain ends. No end group written: not given here.

For this data set the following is noted: relative to human calcitonin = 100%.

Consider “deletion of the entire prolinamide moiety: human calcitonin with the entire C-terminal prolinamide moiety deleted (CGNLSTCMLGTYTQDFNKFHTFPQTAIGVGA; ends and bridges not checked; cysteine pairing not given here; UniProt P01258 85-115, looked up, fragment)”, for which the activity was 0.12%. In the case of “human calcitonin (CGNLSTCMLGTYTQDFNKFHTFPQTAIGVGAP-NH2; disulfide 1-7; ends not checked; UniProt P01258 85-116, looked up) [natural 32 amino acid calcitonin of human origin with C-terminal prolinamide]”, the activity is recorded as 100%.
